Test results from US5962682A, “Aryl- and hetaryl-sulfonamide derivatives, their preparation and their use as endothelin antagonists” (Hoffmann-La Roche Inc., priority 1994, dated 1999).

Experiments:
human ETA receptors = target: T1, human ETA receptors (Homo sapiens, UniProt P25101); test: Inhibition of Endothelin Binding to Recombinant ETA Receptors; settings: inhibition of 50% of the specific binding of 125I-endothelin (20 pM), baculovirus-insect cell membranes
T1 construct: made in house
T1 sequence (P25101 21-427): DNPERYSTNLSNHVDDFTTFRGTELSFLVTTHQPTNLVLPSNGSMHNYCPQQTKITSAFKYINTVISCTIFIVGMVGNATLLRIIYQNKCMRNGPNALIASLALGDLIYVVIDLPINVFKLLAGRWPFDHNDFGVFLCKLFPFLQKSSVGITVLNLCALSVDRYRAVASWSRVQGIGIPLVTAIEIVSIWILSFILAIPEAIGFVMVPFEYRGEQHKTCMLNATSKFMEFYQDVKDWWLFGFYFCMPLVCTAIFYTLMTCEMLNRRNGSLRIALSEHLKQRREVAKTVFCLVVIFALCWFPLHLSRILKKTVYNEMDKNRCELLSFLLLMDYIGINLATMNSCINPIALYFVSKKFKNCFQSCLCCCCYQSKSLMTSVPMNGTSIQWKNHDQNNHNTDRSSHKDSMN
Protocol: I: Inhibition of Endothelin Binding to Recombinant ETA Receptors
A cDNA coding for human ETA receptors of human placenta was cloned (M. Adachi, Y.-Y. Yang, Y. Furuichi and C. Miyamoto, BBRC 180, 1265-1272) and expressed in the baculovirus-insect cell system. Baculovirus-infected insect cells from a 23 l fermenter are centrifuged off (3000×g, 15 minutes, 4° C.) 60 hours after the infection, re-suspended in Tris buffer (5 mM, pH 7.4, 1 mM MgCl2) and again centrifuged. After a further re-suspension and centrifugation the cells are suspended in 800 ml of the same buffer and […] at -120° C. The cells disintegrate when the suspension in this hypotonic buffer mixture is thawed. After a repeated freeze-drying/thawing cycle the suspension is homogenized and centrifuged (25000×g, 15 minutes, 4° C.). After suspension in Tris buffer (75 mM, pH 7.4, 25 mM MgCl2, 250 mM saccharose) 1 ml aliquots (protein content about 3.5 mg/ml) are stored at -85° C.
(§1) For the binding assay, the freeze-dried membrane preparations are thawed and, after centrifugation at 20° C. and 25000 g for 10 minutes, re-suspended in assay buffer (50 mM Tris buffer, pH 7.4, containing 25 mM MnCl2, 1 mM EDTA and 0.5% bovine serum albumin). 100 μl of this membrane suspension containing 5 μg of protein are incubated with 50 μl of ^125 I-endothelin (specific activity 2200 Ci/mMol) in assay buffer (25000 cpm, final concentration 20 pM) and 100 μl of assay buffer containing varying concentrations of test compound. The incubation is carried out at 20° C. for 2 hours or at 4° C. for 24 hours. The separation of free and membrane-bound radio-ligands is carried out by filtration over a glass fibre filter.
(§2) The inhibitory activity on ETA and ETB receptors of compounds of formula I determined in these test procedures is given in Table 1 as the IC50, i.e. as the concentration [μM] which is required to inhibit 50% of the specific binding of ^125 I-endothelin.

ETB receptor = target: T2, ETB receptor (Homo sapiens, UniProt P24530); test: Inhibition of Endothelin Binding to Human Placenta Membranes (ETB receptor); settings: inhibition of 50% of the specific binding of 125I-endothelin (20 pM)
T2 construct: Human placenta is homogenized in 5 mM Tris buffer; from tissue; host or cells: human placenta membranes
T2 sequence (P24530 27-442): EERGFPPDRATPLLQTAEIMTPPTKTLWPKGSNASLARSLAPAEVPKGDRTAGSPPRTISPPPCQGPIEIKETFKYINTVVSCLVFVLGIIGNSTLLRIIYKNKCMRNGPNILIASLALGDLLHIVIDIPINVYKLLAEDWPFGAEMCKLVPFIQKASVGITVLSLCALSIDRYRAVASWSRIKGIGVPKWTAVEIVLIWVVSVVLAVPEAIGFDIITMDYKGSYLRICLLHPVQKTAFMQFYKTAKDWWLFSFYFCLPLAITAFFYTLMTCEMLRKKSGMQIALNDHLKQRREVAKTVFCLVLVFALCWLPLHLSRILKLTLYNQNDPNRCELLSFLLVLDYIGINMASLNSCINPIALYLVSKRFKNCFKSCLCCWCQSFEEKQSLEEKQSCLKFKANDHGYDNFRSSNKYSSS
Protocol: II: Inhibition of Endothelin Binding to Human Placenta Membranes (ETB receptor) (see. Life Sci 44:1429 (1989))
Human placenta is homogenized in 5 mM Tris buffer, pH 7.4, which contains 1 mM MgCl2 and 250 mM sucrose. The homogenizate is centrifuged at 4° C. and 3000 g for 15 minutes, the supernatant containing the plasma membrane fraction is centrifuged at 72000 g for 30 minutes and the precipitate is washed with 75 mM Tris buffer, pH 7.4, which contains 25 mM MgCl2. Thereafter, precipitate obtained from in each case 10 g of original tissue is suspended in 1 ml of 75 mM Tris buffer, pH 7.4, containing 25 mM MgCl2 and 250 mM sucrose, and freeze-dried at -20° C. in 1 ml aliquots.
as §1, with “containing 35” for “containing 5”, “with” for “with 50”
as §2

Isolated Rat Aorta Rings = test: Inhibition of Endothelin-Induced Contractions in Isolated Rat Aorta Rings; type: cell-based, rat (Wistar-Kyoto); settings: for Kb: Rattus norvegicus, Table 2, text calls these the pA2 values, endothelin-1 contraction, endothelium removed, 37° C, 10 min preincubation, read-out: Dosage ratio (switch to the right) (converted)
Protocol: III. Inhibition of Endothelin-Induced Contractions in Isolated Rat Aorta Rings
Rings with a length of 5 mm were cut out from the thorax aorta of adult Wistar-Kyoto rats. The endothelium was removed by lightly rubbing the internal surface. Each ring was immersed at 37° C. in 10 ml of Krebs-Henseleit solution in an isolated bath while gassing with 95% O2 and 5% CO2. The isometric stretching of the rings was measured. The rings were stretched to a pretension of 3 g. After incubation for 10 minutes with the test compound or vehicle cumulative dosages of endothelin-1 were added. The activity of the test compound was ascertained by the observed shift to the right of the dosage-activity curve of endothelin-1 in the presence of different concentrations of antagonist. This shift to the right (or "dose ratio", DR) corresponds to the quotient from the EC50 values of endothelin-1 in the presence and in the absence of antagonist, with the EC50 value denoting the endothelin concentration required for a half-maximum contraction.
The corresponding PA2 value, which is a measure of the activity of the test compound, was calculated using a computer programme according to the following equation from the "dose ratio" DR for each individual dosage-activity curve.
pA2 =log(DR-1)-log(antagonist-concentration)
The EC50 of endothelin in the absence of test compounds is 0.3 nM.

IC50 (human ETA receptors)	IC50 (ETB receptor)	Molecule	Kb (Isolated Rat Aorta Rings)	EC50 (Isolated Rat Aorta Rings; half-maximum contraction, absence of test compounds)
86000 nM	20 nM	COc1ccc(Cl)c(Oc2c(NS(=O)(=O)c3ccc(C(F)(F)F)cc3)cc(C(=O)Nc3ccccc3)cc2OCCO)c1 [Example 85, 4-(2-chloro-5-methoxy-phenoxy)-3-(2-hydroxy-ethoxy)-N-phenyl-5-(4-trifluoromethyl-benzenesulphonylamino)-benzamide]		
> 100000 nM	65 nM	COc1cccc(Oc2c(NS(=O)(=O)c3ccc(C(C)(C)C)cc3)cc(C(=O)Nc3ccccc3)cc2OCCO)c1 [Example 89, 3-(4-tert-butylbenzenesulphonylamino)-5-(2-hydroxy-ethoxy)-4-(3-methoxy-phenoxy)-N-phenyl-benzamide]		
6 nM	850 nM	COc1ccccc1Oc1c(NS(=O)(=O)c2ccc(C(C)C)cn2)cc(C(=O)N2CCOCC2)cc1OCCOC(=O)Nc1ccccn1 [Example 31, pyridin-2-yl-carbamicacid 2-[3-(5-isopropyl-pyridine-2-sulphonylamino)-2-(2-methoxy-phenoxy)-5(morpholine-4-carbonyl)-phenoxy]-ethyl ester]		
2 nM	650 nM	CCOC(=O)N1CCN(C(=O)c2cc(NS(=O)(=O)c3ccc(C(C)C)cn3)c(Oc3ccccc3OC)c(OCCOC(=O)Nc3ccccn3)c2)CC1 [Example 36, ethyl 4-{3-(5-iso-propyl-pyridine-2-sulphonylamino)-4-(2-methoxy-phenoxy)-5-[2-(pyridin-2-ylcarbamoyloxy)-ethoxy]-benzoyl}-piperazine-1-carboxylate]	6.31 nM	
> 100000 nM	15 nM	COc1cccc(Oc2c(NS(=O)(=O)c3ccc(SC)cc3)cc(C(=O)Nc3ccccc3)cc2OCCO)c1 [Example 105, 3-(2-hydroxy-ethoxy)-4-(3-methoxy-phenoxy)-5-(4-methylsulphanyl-benzenesulphonyl-amino)-N-phenyl-benzamide]		
		endothelin: endothelin-1, contracting agonist added in cumulative dosages to rat aorta rings [reference compound]		0.3 nM
10 nM	440 nM	COc1ccccc1Oc1c(NS(=O)(=O)c2ccc(C(C)C)cn2)cc(C(=O)N2CCN(C)CC2)cc1OCCOC(=O)Nc1ccccn1 [Example 33, pyridin-2-yl-carbamic acid 2-[3-(5-isopropyl-pyridine-2-sulphonylamino)-2-(2-methoxy-phenoxy)-5-(4-methyl-piperazine-1-carbonyl)-phenoxy]-ethyl ester]	39.8 nM	
